In patent US20220402916A1, “SMALL MOLECULE INHIBITORS OF KRAS G12C MUTANT” (Merck Sharp & Dohme Corp., priority 2019, published 2022):
Where two headings read alike, the source gives them in different places.

Key:
NCI-H358 cells = experiment: Cellular phospho-ERK assay; assay type: cell-based
Description: NCI-H358 cells (ATCC® CRL-5807™) were cultured in T150 flask in growth medium (RPMI medium 1640-GlutaMAX™-1 (ThermoFisher Scientific 61870) containing 10% fetal bovine serum (ThermoFisher Scientific 10091148)). The cells were harvested in growth medium after TrypLE (ThermoFisher scientific 12604021) digestion and were seeded in 384-well collagen coated cell culture plate (Corning 356702) at a density of 15,000 cells/well, and incubated at 37° C., 5% CO2 overnight. The compound dose-response titrations were prepared and appropriate amounts of compounds were dispensed in 384-well intermediate plate using Echo 550 liquid handler. RPMI medium 1640-GlutaMAX™-I were added to the intermediate plate and transferred to 384-well cell culture plate, which was incubated at 37° C., 5% CO2 for 2 hours. After removal of medium from the plate, cells were lysed in lysis buffer from Alpha SureFire® Ultra™ Multiplex p-Erk and total Erk assay kit (PerkinElmer MPSU-PTERK) containing Halt™ Protease and Phosphotase inhibitor cocktail (ThermoFisher Scientific 78446) at room temperature with constant shaking at 300 rpm for 30 minutes. The cell lysates were then transferred to OptiPlate-384 plate (PerkinElmer 6005620) and the phosphorylation of Erk and total Erk levels were detected by Alpha SureFire Ultra Multiplex p-Erk kit (PerkinElmer MPSU-PTERK) following the manufacturer's protocol. Assay plates were read on an EnVision Multimode Plate Reader (PerkinElmer) and the ratio of p-Erk vs total Erk in each well was used as the final readout. Dose response curves were analyzed using a 4-parameter logistic model to calculate IC50 values using spotfire software.

[1] = target: T1, Biotinylated KRAS G12C protein (Homo sapiens, UniProt P01116, C118S/C51S/C80L/G12C); experiment: SOS-catalyzed nucleotide exchange assay; assay type: biochemical; conditions: apparent potency; preincubation time of 60 minutes prior to addition of SOS
T1 construct: 183 amino acids; biotin on K10

[2] = Homo sapiens, NCI-H358, 2 h, NCI-H358 cells, 2 hour incubation, ratio of p-Erk vs total Erk, read-out: IC50
[3] = NCI-H358 cells, 2 hour incubation, ratio of p-Erk vs total Erk, read-out: IC50

T1 sequence (P01116 with tags, fused parts or gaps isoform P01116-2 G12C/C51S/C80L/C118S): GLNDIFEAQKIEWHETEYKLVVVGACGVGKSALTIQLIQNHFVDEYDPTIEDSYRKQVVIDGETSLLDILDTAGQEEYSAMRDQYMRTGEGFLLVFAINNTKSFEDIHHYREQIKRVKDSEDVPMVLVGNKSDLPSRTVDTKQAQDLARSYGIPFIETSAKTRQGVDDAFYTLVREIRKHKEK

| SMILES | IC50 (NCI-H358 cells; [2]) [nM] | IC50 [1] [nM] | IC50 (NCI-H358 cells; [3]) [nM] | IC50 (NCI-H358 cells; Homo sapiens, NCI-H358, 2 h) [nM] |
| --- | --- | --- | --- | --- |
| C=CC(=O)N1CCN(c2cc(C(=O)NCC3CCCNC3)nc3c2CCN(c2cccc4cccc(C)c24)C3)C[C@@H]1CC#N (mixture of isomers) [Compound 106, 4-((S)-4-acryloyl-3-(cyanomethyl)piperazin-1-yl)-7-(8-methylnaphthalen-1-yl)-N-(((R)-piperidin-3-yl)methyl)-5,6,7,8-tetrahydro-1,7-naphthyridine-2-carboxamide, as a mixture with 4-((S)-4-acryloyl-3-(cyanomethyl)piperazin-1-yl)-7-(8-methylnaphthalen-1-yl)-N-(((S)-piperidin-3-yl)methyl)-5,6,7,8-tetrahydro-1,7-naphthyridine-2-carboxamide] | 5240 | 33 | – | – |
| C=CC(=O)N1CCN(c2cc(C(=O)NC(C)CN3CCC(C)(O)C3)nc3c2CCN(c2cccc4cccc(C)c24)C3)C[C@@H]1CC#N (single isomer, unassigned) [Compound 74, 4-((S)-4-acryloyl-3-(cyanomethyl)piperazin-1-yl)-N-((S or R)-1-((R or S)-3-hydroxy-3-methylpyrrolidin-1-yl)propan-2-yl)-7-(8-methylnaphthalen-1-yl)-5,6,7,8-tetrahydro-1,7-naphthyridine-2-carboxamide] | – | 5.4 | 45 | – |
| C=CC(=O)N1CCN(c2cc(C(=O)NC(C)CN3CCC(C)(O)C3)nc3c2CCN(c2cccc4cccc(C)c24)C3)C[C@@H]1CC#N (single isomer, unassigned) [Compound 75, 4-((S)-4-acryloyl-3-(cyanomethyl)piperazin-1-yl)-N-((R or S)-1-((S or R)-3-hydroxy-3-methylpyrrolidin-1-yl)propan-2-yl)-7-(8-methylnaphthalen-1-yl)-5,6,7,8-tetrahydro-1,7-naphthyridine-2-carboxamide] | – | 7.2 | 68 | – |
| C=CC(=O)N1CCN(c2cc(C(=O)NC(C)CN3CCC(C)(O)C3)nc3c2CCN(c2cccc4cccc(C)c24)C3)C[C@@H]1CC#N (single isomer, unassigned) [Compound 76, 4-((S)-4-acryloyl-3-(cyanomethyl)piperazin-1-yl)-N-((S or R)-1-((S or R)-3-hydroxy-3-methylpyrrolidin-1-yl)propan-2-yl)-7-(8-methylnaphthalen-1-yl)-5,6,7,8-tetrahydro-1,7-naphthyridine-2-carboxamide] | – | 6.2 | 207 | – |
| C=CC(=O)N1CCN(c2cc(C(=O)NCCN(C)C)nc3c2CCN(c2cccc4ccccc24)C3)C[C@@H]1CC#N [Compound 60, (S)-4-(4-acryloyl-3-(cyanomethyl)piperazin-1-yl)-N-(2-(dimethylamino)ethyl)-7-(naphthalen-1-yl)-5,6,7,8-tetrahydro-1,7-naphthyridine-2-carboxamide] | 375 | 8.8 | – | – |
| C=CC(=O)N1CCN(c2cc(C(=O)N[C@@H](C)CN)nc3c2CCN(c2cccc4ccccc24)C3)C[C@@H]1CC#N [Compound 62, 4-((S)-4-acryloyl-3-(cyanomethyl)piperazin-1-yl)-N-((S)-1-aminopropan-2-yl)-7-(naphthalen-1-yl)-5,6,7,8-tetrahydro-1,7-naphthyridine-2-carboxamide] | 2410 | 51 | – | – |
| C=CC(=O)N1CCN(c2cc(C(=O)N3CCC[C@@H]3CN3CCCC3)nc3c2CCN(c2cccc4cccc(C)c24)C3)C[C@@H]1CC#N [Compound 63, 2-((S)-1-acryloyl-4-(7-(8-methylnaphthalen-1-yl)-2-((R)-2-(pyrrolidin-1-ylmethyl)pyrrolidine-1-carbonyl)-5,6,7,8-tetrahydro-1,7-naphthyridin-4-yl)piperazin-2-yl)acetonitrile] | – | 8 | – | 427 |
| C=CC(=O)N1CCN(c2cc(C(=O)NCCN(C)C)nc3c2CCN(c2cccc4cccc(C)c24)C3)C[C@@H]1CC#N [Compound 64, (S)-4-(4-acryloyl-3-(cyanomethyl)piperazin-1-yl)-N-(2-(dimethylamino)ethyl)-7-(8-methylnaphthalen-1-yl)-5,6,7,8-tetrahydro-1,7-naphthyridine-2-carboxamide] | 106 | 2.7 | – | – |
| C=CC(=O)N1CCN(c2cc(C(=O)N[C@H](C)CN(C)C)nc3c2CCN(c2cccc4cccc(C)c24)C3)C[C@@H]1CC#N [Compound 65, 4-((S)-4-acryloyl-3-(cyanomethyl)piperazin-1-yl)-N-((R)-1-(dimethylamino)propan-2-yl)-7-(8-methylnaphthalen-1-yl)-5,6,7,8-tetrahydro-1,7-naphthyridine-2-carboxamide] | 16 | 2.1 | – | – |

Now from value to compound, other results behind:

| IC50 (NCI-H358 cells; [2]) [nM] | IC50 [1] [nM] | IC50 (NCI-H358 cells; [3]) [nM] | SMILES | IC50 (NCI-H358 cells; Homo sapiens, NCI-H358, 2 h) [nM] |
| --- | --- | --- | --- | --- |
| 4890 | 17 | – | C=CC(=O)N1CCN(c2cc(C(=O)NCCC3CCCCN3)nc3c2CCN(c2cccc4cccc(C)c24)C3)C[C@@H]1CC#N (mixture of isomers) [Compound 105, 4-((S)-4-acryloyl-3-(cyanomethyl)piperazin-1-yl)-7-(8-methylnaphthalen-1-yl)-N-(2-((R)-piperidin-2-yl)ethyl)-5,6,7,8-tetrahydro-1,7-naphthyridine-2-carboxamide, as a mixture with 4-((S)-4-acryloyl-3-(cyanomethyl)piperazin-1-yl)-7-(8-methylnaphthalen-1-yl)-N-(2-((S)-piperidin-2-yl)ethyl)-5,6,7,8-tetrahydro-1,7-naphthyridine-2-carboxamide] | – |
| – | 32 | 5550 | C=CC(=O)N1CCN(c2cc(C(=O)NC(C)CN3CCC(F)(F)C3)nc3c2CCN(c2cccc4cccc(C)c24)C3)C[C@@H]1CC#N (single isomer, unassigned) [Compound 71, 4-((S)-4-acryloyl-3-(cyanomethyl)piperazin-1-yl)-N—((R or S)-1-(3,3-difluoropyrrolidin-1-yl)propan-2-yl)-7-(8-methylnaphthalen-1-yl)-5,6,7,8-tetrahydro-1,7-naphthyridine-2-carboxamide] | – |
| – | 529 | 25400 | C=CC(=O)N1CCN(c2cc(C(=O)NC(C)CN3CCC(F)(F)C3)nc3c2CCN(c2cccc4cccc(C)c24)C3)C[C@@H]1CC#N (single isomer, unassigned) [Compound 72, 4-((S)-4-acryloyl-3-(cyanomethyl)piperazin-1-yl)-N—((S or R)-1-(3,3-difluoropyrrolidin-1-yl)propan-2-yl)-7-(8-methylnaphthalen-1-yl)-5,6,7,8-tetrahydro-1,7-naphthyridine-2-carboxamide] | – |
| – | 9.7 | 257 | C=CC(=O)N1CCN(c2cc(C(=O)NC(C)CN3CCC(C)(O)C3)nc3c2CCN(c2cccc4cccc(C)c24)C3)C[C@@H]1CC#N (single isomer, unassigned) [Compound 73, 4-((S)-4-acryloyl-3-(cyanomethyl)piperazin-1-yl)-N—((R or S)-1-((R or S)-3-hydroxy-3-methylpyrrolidin-1-yl)propan-2-yl)-7-(8-methylnaphthalen-1-yl)-5,6,7,8-tetrahydro-1,7-naphthyridine-2-carboxamide] | – |
| 611 | 5 | – | C=C(F)C(=O)N1CCN(c2cc(C(=O)NC(C)CN3CCC(C)(O)C3)nc3c2CCN(c2cccc4cccc(C)c24)C3)C[C@@H]1CC#N (single isomer, unassigned) [Compound 77, 4-((S)-3-(cyanomethyl)-4-(2-fluoroacryloyl)piperazin-1-yl)-N—((R or S)-1-((S or R)-3-hydroxy-3-methylpyrrolidin-1-yl)propan-2-yl)-7-(8-methylnaphthalen-1-yl)-5,6,7,8-tetrahydro-1,7-naphthyridine-2-carboxamide] | – |
| 5940 | 66 | – | C=CC(=O)N1CCN(c2cc(C(=O)N[C@H](C)CN(C)C)nc3c2CCN(c2cccc4cccc(C)c24)C3)CC1 [Compound 12, (R)-4-(4-acryloylpiperazin-1-yl)-N-(1-(dimethylamino)propan-2-yl)-7-(8-methylnaphthalen-1-yl)-5,6,7,8-tetrahydro-1,7-naphthyridine-2-carboxamide] | – |
| 5640 | 74 | – | C=CC(=O)N1CCN(c2cc(C(=O)NC3(CN4CCCCC4)CC3)nc3c2CCN(c2cccc4cccc(C)c24)C3)CC1 [Compound 25, 4-(4-acryloylpiperazin-1-yl)-7-(8-methylnaphthalen-1-yl)-N-(1-(piperidin-1-ylmethyl)cyclopropyl)-5,6,7,8-tetrahydro-1,7-naphthyridine-2-carboxamide] | – |
| 1240 | 13 | – | C=CC(=O)N1CCN(c2cc(C(=O)N[C@H](C)CN)nc3c2CCN(c2cccc4ccccc24)C3)C[C@@H]1CC#N [Compound 61, 4-((S)-4-acryloyl-3-(cyanomethyl)piperazin-1-yl)-N—((R)-1-aminopropan-2-yl)-7-(naphthalen-1-yl)-5,6,7,8-tetrahydro-1,7-naphthyridine-2-carboxamide] | – |
